The values that follow come from paper PMC3821638, “Molecular Cloning and Characterization of the Calcineurin Subunit A from Plutella xylostella” (International Journal of Molecular Sciences, 2013).

pIC50: −log10 of the molar value. Where two headings read alike, the source gives them in different places.

The experiment concerns the target T1, Calcineurin subunit A (PxCNA), catalytic domain PxCNα (Plutella xylostella, UniProt V5U5Q7).
T1 construct: catalytic (phosphatase) domain CNA1–341 (PxCNα), His-tagged, expressed in E. coli
In words: pNPP phosphatase assay with purified recombinant rPxCNα, dose-response and enzyme kinetics. The class given is biochemical.

T1 sequence (V5U5Q7 1-341): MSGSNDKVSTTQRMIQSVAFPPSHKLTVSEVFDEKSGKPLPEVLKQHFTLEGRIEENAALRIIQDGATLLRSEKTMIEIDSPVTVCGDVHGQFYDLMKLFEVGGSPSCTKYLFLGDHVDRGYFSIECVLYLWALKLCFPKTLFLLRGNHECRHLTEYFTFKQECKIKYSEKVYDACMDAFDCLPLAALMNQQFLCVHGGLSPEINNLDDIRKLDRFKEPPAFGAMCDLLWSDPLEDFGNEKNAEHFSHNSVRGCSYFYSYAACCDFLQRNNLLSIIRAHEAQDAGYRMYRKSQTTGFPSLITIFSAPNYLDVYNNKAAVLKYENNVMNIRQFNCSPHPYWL

Consider `C[C@@]12C(=O)OC(=O)[C@]1(C)[C@H]1CC[C@@H]2O1` [CTD, cantharidin], for which the pIC50 is 4.11.

Turning to `C=C1[C@@H](O)[C@@H]2O[C@]3(CC[C@H](/C=C/[C@@H](C)[C@@H]4CC(C)=C[C@@]5(O[C@H](C[C@@](C)(O)C(=O)O)CC[C@H]5O)O4)O3)CC[C@H]2O[C@@H]1[C@@H](O)C[C@H](C)[C@H]1O[C@@]2(CCCCO2)CC[C@H]1C` [OA, okadaic acid], the pIC50 (read-out: IC50) was 5.05.

The pIC50 is −log10 of the IC50, conventionally taken in molar units.
